Measured values as given in patent US8124624B2, “Substituted sulfonamide compounds” (Gruenenthal GmbH, priority 2008, dated 2012).
Where a name gives a salt, the structure may show the parent alone.

Key:
[1] = target: T1, B1R of the rat (Rattus norvegicus, UniProt P97583); assay: FLIPR Ca2+ influx assay, B1R antagonism, rat (rB1R CHO K1 cells); format: cell-based; settings: test substance 10 μM, CHO K1 cells stably transfected with rat B1R, agonist Des-Arg9-bradykinin at EC80, % inhibition compared with maximum achievable inhibition; for inhibition at 10 µM: read-out: B1R antagonism, rat [10 μM] % inhibition
T1 construct: expressed in transfected cells; host or cells: CHO K1 cells (rB1R cells)
T1 sequence (P97583 1-337): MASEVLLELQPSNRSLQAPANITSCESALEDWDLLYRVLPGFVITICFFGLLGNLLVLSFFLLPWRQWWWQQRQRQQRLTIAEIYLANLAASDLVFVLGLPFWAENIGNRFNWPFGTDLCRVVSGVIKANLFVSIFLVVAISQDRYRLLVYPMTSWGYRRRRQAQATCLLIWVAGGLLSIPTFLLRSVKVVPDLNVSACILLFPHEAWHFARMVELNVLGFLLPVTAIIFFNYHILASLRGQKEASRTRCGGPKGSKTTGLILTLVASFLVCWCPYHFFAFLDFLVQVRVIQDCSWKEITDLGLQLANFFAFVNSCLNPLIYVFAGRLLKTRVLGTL
How it was run: (§1)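 CHO K1 cells stably expressing human or rat B1R were loaded with Fluo-4, and Ca^2+ fluorescence was read on a FLIPR. After 10–20 min with test substance, agonist was added at EC80: Lys-Des-Arg^9-bradykinin for hB1R, Des-Arg^9-bradykinin for rB1R. % inhibition is relative to maximal inhibition; IC50 from multiple concentrations, n=2–3, N≥2.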

[2] = target: T2, human B1R (Homo sapiens, UniProt P46663); assay: FLIPR Ca2+ influx assay, B1R antagonism, human (hB1R CHO K1 cells); format: cell-based; settings: test substance 10 μM, CHO K1 cells stably transfected with human B1R, agonist Lys-Des-Arg9-bradykinin at EC80, % inhibition compared with maximum achievable inhibition; for inhibition at 10 µM: read-out: B1R antagonism, human [10 μM] % inhibition
T2 construct: expressed in transfected cells; host or cells: CHO K1 cells (hB1R cells)
T2 sequence (P46663 1-353): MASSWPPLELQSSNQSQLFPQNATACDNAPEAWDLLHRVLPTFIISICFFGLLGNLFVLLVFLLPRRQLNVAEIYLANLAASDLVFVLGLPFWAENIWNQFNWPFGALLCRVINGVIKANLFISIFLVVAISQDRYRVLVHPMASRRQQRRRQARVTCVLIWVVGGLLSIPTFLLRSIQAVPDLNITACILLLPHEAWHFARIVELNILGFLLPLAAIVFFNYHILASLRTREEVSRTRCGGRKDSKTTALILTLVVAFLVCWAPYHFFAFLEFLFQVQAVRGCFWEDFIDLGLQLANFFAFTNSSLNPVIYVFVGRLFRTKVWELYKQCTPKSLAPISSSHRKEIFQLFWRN
How it was run: as §1

| SMILES | inhibition at 10 µM [1] [%] | inhibition at 10 µM [2] [%] | B1R antagonism, rat [10 μM] % inhibition [1] [%] | B1R antagonism, human [10 μM] % inhibition [2] [%] |
| --- | --- | --- | --- | --- |
| COc1cc(C)c(S(=O)(=O)N2c3ccccc3OCC2COCC(=O)N2CCC(CCCN3CCCC3)(c3cccnc3)CC2)c(C)c1 (centres unmarked) [Example 67, 2-[[4-[(4-Methoxy-2,6-dimethyl-phenyl)sulfonyl]-3,4-dihydro-2H-[1,4]benzoxazin-3-yl]-methoxy]-1-[4-pyridin-3-yl-4-(3-pyrrolidin-1-yl-propyl)-piperidin-1-yl]-ethanone] | 102 | 100 |  |  |
| COc1cc(C)c(S(=O)(=O)N2c3ccccc3OCC2COCC(=O)N2CCC(CCCN3CCCC3)(c3cccnc3)CC2)c(C)c1 (centres unmarked) [Example 68, 2-[[4-[(4-Methoxy-2,6-dimethyl-phenyl)sulfonyl]-3,4-dihydro-2H-[1,4]benzoxazin-3-yl]-methoxy]-1-[4-pyridin-3-yl-4-(3-pyrrolidin-1-yl-propyl)-piperidin-1-yl]-ethanone] |  |  | 101 | 100 |
| COc1cc(C)c(S(=O)(=O)N(CCOCC(=O)N2CCC(CCCN3CCCC3)(c3cccnc3)CC2)Cc2cnc3ccccc3c2)c(C)c1 [Example 71, 4-Methoxy-2,6-Dimethyl-N-[2-[2-oxo-2-[4-pyridin-3-yl-4-(3-pyrrolidin-1-yl-propyl)-piperidin-1-yl]-ethoxy]-ethyl]-N-(quinolin-3-yl-methyl)-benzenesulfonic acid amide] | 103 | 100 |  |  |
| Cc1cccc(Cl)c1S(=O)(=O)N1c2ccccc2OCC1COCC(=O)N1CCC(CCCN2CCCC2)(c2cccnc2)CC1 (centres unmarked) [Example 72, 2-[[4-[(2-Chloro-6-methyl-phenyl)sulfonyl]-3,4-dihydro-2H-[1,4]benzoxazin-3-yl]-methoxy]-1-[4-pyridin-3-yl-4-(3-pyrrolidin-1-yl-propyl)-piperidin-1-yl]-ethanone] | 103 | 100 |  |  |
| O=C(COCC1COc2ccccc2N1S(=O)(=O)c1ccccc1C(F)(F)F)N1CCC(CCCN2CCCC2)(c2cccnc2)CC1 (centres unmarked) [Example 74, 1-[4-Pyridin-3-yl-4-(3-pyrrolidin-1-yl-propyl)-piperidin-1-yl]-2-[[4-[[2-(trifluoromethyl)-phenyl]sulfonyl]-3,4-dihydro-2H-[1,4]benzoxazin-3-yl]-methoxy]-ethanone] |  | 100 | 93 |  |
| Cc1cccc(Cl)c1S(=O)(=O)N(CCOCC(=O)N1CCC(CCCN2CCCC2)(c2cccc(Cl)c2)CC1)C1CC1 [Example 77, 2-Chloro-N-[2-[2-[4-(3-chlorophenyl)-4-(3-pyrrolidin-1-yl-propyl)-piperidin-1-yl]-2-oxo-ethoxy]-ethyl]-N-cyclopropyl-6-methyl-benzenesulfonic acid amide] | 92 | 100 |  |  |
| Cc1cccc(Cl)c1S(=O)(=O)N(CCOCC(=O)N1CCC(CCCN2CCCC2)(c2cccc(C(F)(F)F)c2)CC1)C1CC1 [Example 78, 2-Chloro-N-cyclopropyl-6-methyl-N-[2-[2-oxo-2-[4-(3-pyrrolidin-1-yl-propyl)-4-[3-(trifluoromethyl)phenyl]-piperidin-1-yl]-ethoxy]-ethyl]-benzenesulfonic acid amide] | 92 | 97 |  |  |
| Cc1cccc(Cl)c1S(=O)(=O)N(CCOCC(=O)N1CCC(CCCN2CCCC2)(c2cccc(F)c2)CC1)C1CC1 [Example 79, 2-Chloro-N-cyclopropyl-N-[2-[2-[4-(3-fluorophenyl)-4-(3-pyrrolidin-1-yl-propyl)-piperidin-1-yl]-2-oxo-ethoxy]-ethyl]-6-methyl-benzenesulfonic acid amide] | 103 | 100 |  |  |
| COc1cc(C)c(S(=O)(=O)N2CCCC[C@H]2COCC(=O)N2CCC(CCN3CCCC3)(c3cccnc3)CC2)c(C)c1 [Example 80, 2-[[(2S)-1-[(4-Methoxy-2,6-dimethyl-phenyl)sulfonyl]-piperidin-2-yl]-methoxy]-1-[4-pyridin-3-yl-4-(2-pyrrolidin-1-yl-ethyl)-piperidin-1-yl]-ethanone hydrochloride] | 104 | 100 |  |  |
| COc1cc(C)c(S(=O)(=O)N2CCCC[C@H]2COCC(=O)N2CCC(CCCN3CCCC3)(c3cccnc3)CC2)c(C)c1 [Example 81, 2-[[(2S)-1-[(4-Methoxy-2,6-dimethyl-phenyl)sulfonyl]-piperidin-2-yl]-methoxy]-1-[4-pyridin-3-yl-4-(3-pyrrolidin-1-yl-propyl)-piperidin-1-yl]-ethanone hydrochloride] | 102 | 100 |  |  |
